The source of these data is patent EP4653008A1, “TRADITIONAL CHINESE MEDICINE COMPOSITION HAVING EFFICACY IN TREATING COLDS AND USE THEREOF” (Shijiazhuang Yiling Pharmaceutical Co., Ltd., priority 2023, dated 2024).

Experiment [1] relates to parainfluenza virus (PIV). In words: in vitro antiviral assay (CPE, CCK-8). It is filed as cell-based. To be noted: LLC-MK2 host cells, 100 TCID50, n=4.
The next experiment deals with Coxsackievirus B3 (CVB3). As to the kind of experiment: in vitro antiviral assay (CPE, CCK-8). The experiment is classed as cell-based. The following applies: Enterovirus B, LLC-MK2.
The subject of a further experiment is HEp-2. As to the kind of experiment: in vitro cytotoxicity (CCK-8). It is filed as cell-based. The following applies: Homo sapiens; HEp-2 cells; 72 h; n=3.
The next experiment deals with Vero. As to the kind of experiment: in vitro cytotoxicity (CCK-8). The experiment is classed as cell-based, African green monkey. To be noted: Chlorocebus sabaeus; Vero cells; 72 h; n=3.
The next experiment deals with H1HeLa. In words: cells. It is filed as cell-based. To be noted: Homo sapiens, H1-HeLa, 72 h, n=3.
The next experiment has as its system rhinovirus (Rhv). In words: in vitro antiviral assay (CPE, CCK-8). It is filed as cell-based. The following applies: Enterovirus, H1-HeLa.
Another experiment deals with enterovirus (EV71). In words: in vitro antiviral assay (CPE, CCK-8). The experiment is classed as cell-based. To be noted: LLC-MK2 host cells, 100 TCID50, n=4. As to the method: • (1) Test Grouping: Concentrations were set up based on the comprehensive results of cytotoxicity assays and OD450nm, values, and literature reports on the antiviral effects of positive control drugs. The concentration without significant toxic effects on cells under microscopic observation was selected as the starting concentration for the in vitro antiviral test. […] All of them were diluted into 5 concentrations, with 4 replicate wells set up for each concentration. A virus titer of 100 TCID50 was used to infect the cells. The grouping was as follows: virus + drug group, in which the drug group included the test substance group and the positive control drug group; the virus control group (with virus and no drug), and the cell control group (with virus maintenance solution only). See Table 3 below for detail. • (2) Cell Plating: Cells were prepared into a single cell suspension (1×10^4 cells/mL), seeded into a 96-well cell culture plate at 100 µL per well, and incubated overnight in a 37°C, 5% CO2 incubator. • (3) Addition of Drug and Observation: The medium was discarded, and the cells were washed twice with 1×PBS. […] The OD450nm value of the cells was read using a microplate reader. The inhibition rates of virus by different concentrations of the test substance and their median effective concentration (EC50) against virus were calculated as follows. […]

For experiment [2], the system named is respiratory syncytial virus (RSV). In words: in vitro antiviral assay (CPE, CCK-8). The experiment is classed as cell-based. To be noted: human respiratory syncytial virus, HEp-2 host cells, 100 TCID50, n=4.
The next experiment deals with rotavirus (RV). In words: in vitro antiviral assay (CPE, CCK-8). It is filed as cell-based. The following applies: Vero.
The next experiment concerns LLC-MK2. As to the kind of experiment: in vitro cytotoxicity (CCK-8). It is filed as cell-based, monkey. To be noted: Primates; LLC-MK2 cells; 72 h; n=3.

≈ marks a conversion by molar mass, not a printed value. A value given as a limit tells only on which side of the number the result lay.

On to `NC(=O)c1ncn([C@@H]2O[C@H](CO)[C@@H](O)[C@H]2O)n1` [Ribavirin], for which the EC50 (as a rule, the concentration that produces a half-maximal response) in [1] is 20.9 µg/mL (≈ 85.7 µM); in the experiment on Coxsackievirus B3 (CVB3), 102 µg/mL (≈ 417 µM); in the experiment with rhinovirus (Rhv), above 30 µg/mL; with enterovirus (EV71), 6.03 µg/mL (≈ 24.7 µM); in experiment [2], above 10 µg/mL; in the experiment on rotavirus (RV) it was 20.6 µg/mL (≈ 84.5 µM). Further, the IC50 with HEp-2, in the experiment with Vero, in the experiment on H1HeLa and with LLC-MK2 was above 1000 µg/mL throughout.
